Laboratory results published in article PMC10179080, “In Vivo and In Vitro Characterization of Close Analogs of Compound KA-11, a New Antiseizure Drug Candidate” (International Journal of Molecular Sciences, 2023).
Where two headings read alike, the source gives them in different places.

Experiments:
[1] = tested on: hepatoma HepG2; assay: Hepatotoxicity, HepG2 cell viability; type: cell-based, human; conditions: 100× lower concentration than 100 µM
Text: The assays and protocols used for evaluating the KA-232 ADME-Tox parameters were similar to those described previously for compound KA-11 [6].
Figure 9 The effect of KA-232 and the reference drug ketoconazole (KE) on CYP3A4 activity (A). The effect of KA-232 and the reference drug quinidine (QD) on CYP2D6 activity (B). The effect of KA-232 and the reference cytostatic drug doxorubicin (DX) on the HepG2 cell line (C) and the SH-SY5Y cell line (D) viability. Statistical significance (* p < 0.05, **** p < 0.0001) was analyzed by Graph Pad Prism 8 software using one-way ANOVA and Bonferroni’s Multiple Comparison Post Test.

[2] = tested on: 6-Hz-induced psychomotor seizures in mice; conditions: i.p.; cited from earlier work
[3] = tested on: tonic–clonic seizures in mice; conditions: i.p.; cited from earlier work
[4] = tested on: PTZ-induced clonic seizures in mice; conditions: i.p.; cited from earlier work
[5] = tested on: seizure susceptibility in mice; assay: Timed ivPTZ seizure threshold test; type: in vivo; conditions: 50 mg/kg i.p., 30 min before ivPTZ
Protocol: (§1) The experiments were conducted on adult male albino Swiss mice weighing 22–26 g. The animals were kept in colony cages under standardized laboratory conditions: natural light–dark cycle 12/12 h, temperature 20–24 °C, air humidity 45–65% and free access to tap water and food (chow pellets). After 7 days of adaptation to laboratory conditions, the animals were randomly assigned to experimental groups consisting of 8 mice. The experimental procedures described herein were approved by the Local Ethics Committee in Lublin, Poland (approval numbers: 71/2020 and 13/2021), and were conducted in accordance with EU Directive 2010/63/EU for animal experiments. All efforts were made to minimize animal suffering and to use only the number of animals necessary to produce reliable scientific data according to the 3Rs rule.
The timed ivPTZ seizure threshold test was carried out according to the method described by Socała et al.. KA-228 and KA-232 were suspended in a 1% solution of Tween 80 and administered i.p. 30 min before the test. In the experiment with KA-232, two separate control groups were used because the effects of KA-232 at a dose of 50 and 100 mg/kg were determined on different days.
(§2) The ED50 or TD50 values for tested substances in the acute animal models of seizures were calculated using the computer log-probit analysis. Subsequently, the ED50 and TD50 values (±SEM) were statistically analyzed using one-way analysis of variance (ANOVA) followed by the post hoc Dunnett’s test for multiple comparisons. Differences among values were considered statistically significant if p < 0.05. GraphPad Prism version 8 for Windows (GraphPad Software, San Diego, CA, USA) was used as a statistical software program. The results obtained from the acute ivPTZ test and grip strength test were evaluated by a Student’s t test. Fisher’s exact probability test was used to analyze protection from tonic forelimb and hindlimb extension in the ivPTZ test.
Figure 7 Effects of KA-11, KA-228 and KA-232 on the threshold for the first myoclonic twitch (A), generalized clonus (B) and forelimb tonus (C) in the ivPTZ test in mice. KA-228 and KA-232 were administered i.p., 30 min before seizure induction. Control animals received vehicle. Data are presented as means ± SD (mg/kg PTZ; n = 9–14 animals; the n value varies between groups because some animals were excluded from the study due to unsuccessful catheterization of the vein). The statistical significance for KA-228 and KA-232 was evaluated by a Student’s t test. Data for KA-11 were used from Socała et al. and re-analyzed using one-way ANOVA followed by Dunnett’s post hoc test. * p < 0.05, ** p < 0.01, *** p < 0.001, **** p < 0.0001 vs. the vehicle-treated group (GraphPad Prism 8).

[6] = tested on: PTZ-induced clonic seizures in mice; assay: scPTZ-induced convulsions; type: in vivo; conditions: i.p.
Protocol: as §1
(§3) All substances (except PTZ and tetracaine hydrochloride dissolved in water for injections) were suspended in a 1% solution of Tween 80 (Sigma-Aldrich, Saint Louis, MO, USA) in water for injections (Baxter, Warszawa, Poland) or 0.9% NaCl. All drugs were injected intraperitoneally (i.p.) 30 min before all seizure models with 1 mL syringes as a single injection, in a volume of 10 mL/kg. The pretreatment time (30 min) before testing for KA-228 and KA-232 was chosen based on the time to peak of maximum anticonvulsant activity of KA-11 from our previous studies.
The PTZ-induced clonic seizures in mice were determined after sc administration of PTZ at a dose of 100 mg/kg. The animals were administered with increasing doses of KA-228 and KA-232, and the anticonvulsant activity of each drug was evaluated as the ED50 value. This experimental procedure has been described in detail in our previous studies.
as §2

[7] = tested on: tonic–clonic seizures in mice; assay: Maximal electroshock seizure (MES) test; type: in vivo
Protocol: as §1, §3
The tonic–clonic seizures in mice were evoked by an electric stimulus (an alternating current 25 mA, 50 Hz, maximum output voltage 500 V, 0.2 s) generated by a rodent shocker (Hugo Sachs Elektronik, Freiburg, Germany) and delivered via ear-clip electrodes. […] This experimental procedure has been described in detail in our previous studies.
as §2

[8] = Chimney test; conditions: male, albino Swiss, mouse, in vivo, ip, mice
Protocol: as §1
The chimney test of Boissier et al. was used to quantify the acute adverse-effect potential of KA-228 and KA-232 on motor performance in mice. […]
The ED50 or TD50 values for tested substances in the acute animal models of seizures were calculated using the computer log-probit analysis. Subsequently, the ED50 and TD50 values (±SEM) were statistically analyzed using one-way analysis of variance (ANOVA) followed by the post hoc Dunnett’s test for multiple comparisons. […] The results obtained from the acute ivPTZ test and grip strength test were evaluated by a Student’s t test. […]

[9] = tested on: Calcium Cav1.2 channels (dihydropyridine site, antagonist radioligand); assay: Radioligand binding, Cav1.2 dihydropyridine site; design: species or system rat; conditions: 10 µM
Protocol: (§4) Dysfunction of both sodium and calcium ion channels is known to be one of the crucial reasons behind the pathogenesis of seizures. Consequently, these ion channels are molecular targets for several clinically important ASDs such as lacosamide, lamotrigine, carbamazepine, oxcarbazepine and compounds currently under preclinical and clinical studies. Thus, for KA-228 and KA-232, we tested herein their binding profile toward the aforementioned ion channels at concentrations of 10 and 100 µM (Table 3). […] Apart from in vitro studies focused on explaining the mechanism of action, KA-232 was additionally tested for its interaction with the potassium channel (hERG) which is recognized as one of the most important ‘off-targets’ responsible for harmful arrhythmogenic activity. Thus, the interaction of potential drug candidates with hERG must be excluded at an early stage of development.
(§5) Binding studies were carried out commercially in Eurofins Laboratories (Poitiers, France or New Taipei City, Taiwan).

[10] = tested on: 6-Hz-induced psychomotor seizures in mice; assay: 6 Hz (32 mA) seizure model; type: in vivo
Protocol: as §1, §3
The 6-Hz-induced psychomotor seizures in mice were evoked by current (6 Hz, 0.2 ms rectangular pulse width, 32 mA, 3 s duration) generated by an S48 Square Pulse Stimulator and CCU1 Constant Current Unit (Grass Technologies, West Warwick, RI, USA). The animals were administered with increasing doses of KA-228 and KA-232, and the anticonvulsant activity of each drug was evaluated as the ED50. This experimental procedure has been described in detail in our previous studies.
as §2

[11] = tested on: Na^+ channel (site 2); assay: Radioligand binding, Na+ channel (site 2); design: species or system rat
Protocol: as §4, §5

[12] = tested on: neuromuscular strength in mice; assay: Grip strength test; type: in vivo; conditions: 50 mg/kg i.p., 30 min before test
Protocol: The experiments were conducted on adult male albino Swiss mice weighing 22–26 g. The animals were kept in colony cages under standardized laboratory conditions: natural light–dark cycle 12/12 h, temperature 20–24 °C, air humidity 45–65% and free access to tap water and food (chow pellets). After 7 days of adaptation to laboratory conditions, the animals were randomly assigned to experimental groups consisting of 8 mice. The experimental procedures described herein were approved by the Local Ethics Committee in Lublin, Poland (approval numbers: 71/2020 and 13/2021), and were conducted in accordance with EU Directive 2010/63/EU for animal experiments. All efforts were made to minimize animal suffering and to use only the number of animals necessary to produce reliable scientific data according to the 3Rs rule. The grip strength test was carried out according to the methodology described by Socała et al.. Neuromuscular strength was measured just before the ivPTZ seizure threshold test to limit the number of animals used. The ED50 or TD50 values for tested substances in the acute animal models of seizures were calculated using the computer log-probit analysis. Subsequently, the ED50 and TD50 values (±SEM) were statistically analyzed using one-way analysis of variance (ANOVA) followed by the post hoc Dunnett’s test for multiple comparisons. Differences among values were considered statistically significant if p < 0.05. GraphPad Prism version 8 for Windows (GraphPad Software, San Diego, CA, USA) was used as a statistical software program. The results obtained from the acute ivPTZ test and grip strength test were evaluated by a Student’s t test. Fisher’s exact probability test was used to analyze protection from tonic forelimb and hindlimb extension in the ivPTZ test. Figure 8 Effects of KA-228 and KA-232 on neuromuscular strength in mice. KA-228 and KA-232 were administered i.p., 30 min before the test. Control animals received vehicle. […] The statistical significance was evaluated using the Student’s t test: * p < 0.05 vs. the vehicle-treated group (GraphPad Prism 8).

With `COc1cccc2c1C(=O)c1c(O)c3c(c(O)c1C2=O)C[C@@](O)(C(=O)CO)C[C@@H]3O[C@H]1C[C@H](N)[C@H](O)[C@H](C)O1` [doxorubicin, reference compound] the HepG2 cell viability [1] was 21 % of control.
For `CCCC(CCC)C(=O)O` [VPA, valproic acid, reference compound], the “ED50 6 Hz ± SD” value [2] is given as 110.5 ± 42.8 mg/kg, the “TI (TD50/ED50), 6 Hz” value [2] is given as 3.90 and the “ED50 MES ± SD” value [3] is given as 355.2 ± 108.1 mg/kg. The “TI (TD50/ED50), MES” value [3] was 1.21, the “ED50 PTZ ± SD” value [4] was 176.2 ± 81.8 mg/kg and the “TI (TD50/ED50), PTZ” value [4] was 2.44.
In the case of `CC(C(=O)N1CCN(c2cccc(C(F)(F)F)c2)CC1)N1CCCC1=O` (centres unmarked) [KA-228, 1-(1-oxo-1-(4-(3-(trifluoromethyl)phenyl)piperazin-1-yl)propan-2-yl)pyrrolidin-2-one], the melting point is reported as 87.1 to 88.4 °C, the “effect on threshold for forelimb tonus” value [5] is reported as “significantly raised” and the “effect on threshold for generalized clonus” value [5] is reported as “did not cause any significant changes”. The “effect on threshold for the first myoclonic twitch” value [5] was “did not cause any significant changes”, the ED50 ([6]; Mus musculus, scPTZ 100 mg/kg, 30 min before test, read-out: ED50 PTZ ± SD) was 95.4 ± 39.8 mg/kg and the “TI (TD50/ED50), PTZ” value ([6]; scPTZ) was 1.38. The ED50 ([7]; Mus musculus, ip, 30 min before test, read-out: ED50 MES ± SD) was 92.5 ± 16 mg/kg, the “TI (TD50/ED50), MES” value ([7]; i.p.) was 1.42 and the TD50 at 30 min [8] was 131 ± 36.2 mg/kg. For the same compound, the “% Inhibition of Control Specific Binding” value [9] was 8.7%, the ED50 ([10]; Mus musculus, ip, 30 min before test, read-out: ED50 6 Hz ± SD) was 61.8 mg/kg and the “TI (TD50/ED50), 6 Hz” value ([10]; i.p.) was 1.72. For the same compound, the “ED50 6 Hz ± SD” value ([10]; i.p., 30 min before test) was 76.4 ± 40.76 mg/kg, the “% Inhibition of Control Specific Binding” value ([11]; 10 µM) was −2.9% and the “% Inhibition of Control Specific Binding” value ([11]; 100 µM) was 15.5%. The “effect on neuromuscular strength (grip strength)” value [12] was “did not produce any significant effects”.
